In patent publication US20080139520A1, “Altering cholesterol and fat uptake by novel allosteric inhibitors of pancreatic phospholipase A2” (priority 2006, published 2008):

Tests used:
[1] = molecular target: T1, human pancreatic IB PLA2 (Homo sapiens, UniProt P04054); experiment: Rate-lowering of hydrolysis of DMPC + 0.05 mole fraction cholate vesicles by human pancreatic PLA2; type: biochemical
T1 construct: gift of Dr. Suren Tatulian (Orlando, Fla.)
Excerpt: Independent support for selective binding of the rate lowering compounds to a regulatory site on PLA2 comes from the rate-lowering effect of such compounds on the hydrolysis of DMPC vesicles containing 0.05 mole fraction cholate.
Scores of other compounds in guggul were not active.

[2] = molecular target: T2, PLA2 (Sus scrofa, UniProt P00592); experiment: PLA2 catalyzed hydrolysis of mixed micelles of POPC with bile salts; type: biochemical, pig; settings: 1 mM POPC, 0.7 mole fraction bile salt
T2 construct: made in house
Protocol: (§1) Aqueous dispersion of phospholipid was sonicated in a bath type sonicator. Virtually transparent suspension was annealed for at least 4 hours at room temperature before use. Reaction progress for the PLA2 catalyzed hydrolysis of sonicated DMPC (1 mM) vesicles was measured by pH-stat titration (Radiometer) with 1 mM 2-aminopropanediol in 4 ml reaction buffer containing 5 mM CaCl2 for DMPC (or 0.5 mM for DMPM), 1 mM NaCl, and 0.1 mM EDTA at pH 8.0 and 24° C. in the nitrogen purged closed atmosphere. Reaction was initiated by adding 0.1 μg enzyme in 1-10 μl solution. The pH stat method was also used for monitoring the rate of hydrolysis of DMPM (0.4 mM) vesicles in the presence of polymyxin [27-29], or of the mixed-micelles of POPC with bile salts in 1:2 ratio [13, 30].

[3] = molecular target: T3, (62-66)-loop deleted pig pancreatic IB ΔPLA2 (Sus scrofa, UniProt P00592, DEL84-88); experiment: Hydrolysis of DMPC vesicles by (62-66)-loop deleted ΔPLA2 with added bile salt; type: biochemical
T3 construct: made in house
Protocol: as §1

[4] = test system: Naja venom PLA2; type: biochemical, Naja melanoleuca
Protocol: as §1

[5] = molecular target: T2, PLA2; experiment: Isothermal calorimetric titration of PLA2 with bile salt; type: binding, pig; settings: ITC
Protocol: ITC titration of PLA2 with <1 mM (below the CMC) bile salt stock solution was carried out on the Microcal calorimeter (model VP-itc) with cell volume of 1.42 ml with stirring at 300 rpm. Successive injections were made every 5 min. Standard software was used for the peak integration. The heat change with the internal calibration associated with the dilution of the titrant in the […] was subtracted from the heat change obtained by the injection of the bile salt in the presence of 8.5 μM PLA2. The net heat change per injection in the presence of PLA2 was integrated to obtain the total heat change as a function of the total added amphiphile concentration.

[6] = molecular target: T4, PLA2 (3W)(WT) (Sus scrofa, UniProt P00592); experiment: Bile salt binding by Trp emission, (3W)(WT) PLA2; set-up: species or system pig; settings: read-out: KEB
T4 construct: made in house
Protocol: (§2) Fluorescence emission spectrum or time course of the intensity change from tryptophan or the resonance energy transfer probe TMA-DPH were measured in the ratio mode on SLM-Aminco AB2 in a 1 cm cuvette [31, 32] in 1.6 ml stirred buffer containing 1 or 2 μM PLA2 in 10 mM Tris, 5 mM CaCl2 and 20 mM NaCl at pH 8.0 and 24° C. The slit-widths were 4 nm with excitation at 280.
(§3) As shown in [45], the binding of decylsulfate to the R site is accompanied by a modest increase in the emission intensity from Trp-3. […] As summarized in Table 2, the value of KEB depends on the position of Trp, although Hill coefficient remains 1. […] Note that KEB for the EB complex of ΔPLA2 is about 7-fold larger than that for PLA2.

[7] = molecular target: proPLA2 (Sus scrofa, UniProt P00592); experiment: Bile salt binding by Trp emission, proPLA2; set-up: species or system pig; settings: read-out: KEB
Protocol: as §2, §3

[8] = molecular target: PLA2 R6M (Sus scrofa, UniProt P00592, R28M); experiment: Bile salt binding by Trp emission, R6M PLA2; set-up: species or system pig; settings: read-out: KEB
Protocol: as §2, §3

[9] = molecular target: T5, PLA2 A1W/W3F (Sus scrofa, UniProt P00592, A23W/W25F); experiment: Bile salt binding by Trp emission, A1W/W3F PLA2; set-up: species or system pig; settings: read-out: KEB
T5 construct: made in house
Protocol: as §2, §3

[10] = molecular target: T6, PLA2 L2W/W3F (Sus scrofa, UniProt P00592, L24W/W25F); experiment: Bile salt binding by Trp emission, L2W/W3F PLA2; set-up: species or system pig; settings: read-out: KEB
T6 construct: made in house
Protocol: as §2, §3

[11] = molecular target: T7, PLA2 R6W/W3F (Sus scrofa, UniProt P00592, R28W/W25F); experiment: Bile salt binding by Trp emission, R6W/W3F PLA2; set-up: species or system pig; settings: read-out: KEB
T7 construct: made in house
Protocol: as §2, §3

[12] = molecular target: T8, PLA2 K10W/W3F (Sus scrofa, UniProt P00592, K32W/W25F); experiment: Bile salt binding by Trp emission, K10W/W3F PLA2; set-up: species or system pig; settings: read-out: KEB
T8 construct: made in house
Protocol: as §2, §3

[13] = molecular target: T9, PLA2 L19W/W3F (Sus scrofa, UniProt P00592, L41W/W25F); experiment: Bile salt binding by Trp emission, L19W/W3F PLA2; set-up: species or system pig; settings: read-out: KEB
T9 construct: made in house
Protocol: as §2, §3

[14] = molecular target: T10, PLA2 K53W/W3F (Sus scrofa, UniProt P00592, R75W/W25F); experiment: Bile salt binding by Trp emission, K53W/W3F PLA2; set-up: species or system pig; settings: read-out: KEB
T10 construct: made in house
Protocol: as §2, §3

[15] = molecular target: T11, PLA2 K56W/W3F (Sus scrofa, UniProt P00592, K78W/W25F); experiment: Bile salt binding by Trp emission, K56W/W3F PLA2; set-up: species or system pig; settings: read-out: KEB
T11 construct: made in house
Protocol: as §2, §3

[16] = molecular target: PLA2 K63W/W3F (Sus scrofa, UniProt P00592, W25F/); experiment: Bile salt binding by Trp emission, K63W/W3F PLA2; set-up: species or system pig; settings: read-out: KEB
Protocol: as §2, §3

[17] = molecular target: T12, PLA2 K87W/W3F (Sus scrofa, UniProt P00592, K109W/W25F); experiment: Bile salt binding by Trp emission, K87W/W3F PLA2; set-up: species or system pig; settings: read-out: KEB
T12 construct: made in house
Protocol: as §2, §3

[18] = molecular target: T13, PLA2 N117W (Sus scrofa, UniProt P00592, N139W); experiment: Bile salt binding by Trp emission, N117W PLA2; set-up: species or system pig; settings: read-out: KEB
T13 construct: made in house
Protocol: as §2, §3

[19] = molecular target: T2, PLA2; experiment: Quenching of RET signal from TMA-DPH bound to PLA2 by bile salts; type: binding, pig; settings: 1 μM PLA2 and TMA-DPH, pH 8.0
Protocol: as §2

T2 sequence (P00592 23-146): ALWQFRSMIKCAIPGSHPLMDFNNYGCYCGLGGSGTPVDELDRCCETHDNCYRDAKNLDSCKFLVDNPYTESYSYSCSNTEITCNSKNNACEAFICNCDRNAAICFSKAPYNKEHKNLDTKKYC
T1 sequence (P04054 23-148): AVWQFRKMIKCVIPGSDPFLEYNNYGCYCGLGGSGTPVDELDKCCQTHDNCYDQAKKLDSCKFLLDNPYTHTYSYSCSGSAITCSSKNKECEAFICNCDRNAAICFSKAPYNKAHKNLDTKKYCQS
T8 sequence (P00592 23-146 W25F/K32W): as the sequence (P00592 23-146) above, with W3F, K10W counted along it
T11 sequence (P00592 23-146 W25F/K78W): as the sequence (P00592 23-146) above, with W3F, K56W counted along it
T13 sequence (P00592 23-146 N139W): as the sequence (P00592 23-146) above, with N117W counted along it
T3 sequence (P00592 with tags, fused parts or gaps DEL84-88): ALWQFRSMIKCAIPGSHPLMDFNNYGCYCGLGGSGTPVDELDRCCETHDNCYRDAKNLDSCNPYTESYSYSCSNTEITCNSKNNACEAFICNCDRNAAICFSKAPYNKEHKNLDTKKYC
Chain of proPLA2 (P00592 16-146 limits assumed): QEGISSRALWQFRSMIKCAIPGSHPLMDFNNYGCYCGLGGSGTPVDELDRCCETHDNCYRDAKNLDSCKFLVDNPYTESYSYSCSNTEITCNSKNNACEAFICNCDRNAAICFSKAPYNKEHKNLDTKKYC
Chain of PLA2 K63W/W3F (P00592 whole entry W25F/F85W, form open): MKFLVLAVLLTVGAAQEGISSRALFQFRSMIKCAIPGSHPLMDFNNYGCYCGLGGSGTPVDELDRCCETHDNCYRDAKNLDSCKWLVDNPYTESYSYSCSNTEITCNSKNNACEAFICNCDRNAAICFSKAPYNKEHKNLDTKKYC
T9 sequence (P00592 23-146 W25F/L41W): as the sequence (P00592 23-146) above, with W3F, L19W counted along it
T4 sequence (P00592 23-146): as the sequence (P00592 23-146) above
T10 sequence (P00592 23-146 W25F/R75W): as the sequence (P00592 23-146) above, with W3F, R53W counted along it
Chain of PLA2 R6M (P00592 23-146 R28M): as the sequence (P00592 23-146) above, with R6M counted along it
T7 sequence (P00592 23-146 W25F/R28W): as the sequence (P00592 23-146) above, with W3F, R6W counted along it
T5 sequence (P00592 23-146 A23W/W25F): as the sequence (P00592 23-146) above, with A1W, W3F counted along it
T6 sequence (P00592 23-146 L24W/W25F): as the sequence (P00592 23-146) above, with L2W, W3F counted along it
T12 sequence (P00592 23-146 W25F/K109W): as the sequence (P00592 23-146) above, with W3F, K87W counted along it

Q: Which “Relative Rate-lowering (%) Activity, hPLA2” value ([1]; 0.03 mole fraction, DMPC + 0.05 mole fraction cholate) does the source give for `C[C@H](CCC(=O)NCCS(=O)(=O)O)[C@H]1CC[C@H]2[C@@H]3[C@H](O)C[C@@H]4C[C@H](O)CC[C@]4(C)[C@H]3CC[C@]12C` [TCDOC, taurochenodeoxycholate] here?
A: 90%

Q: What about the “relative effectiveness in lowering the rate of hydrolysis by human PLA2” value ([1]; DMPC vesicles containing 0.05 mole fraction cholate, FIG. 5B) of the same molecule?
A: more effective than ezetimibe

Q: What about the “initial rate of hydrolysis of POPC in mixed micelles” value [2] of the same molecule?
A: 15 s⁻¹

Q: What about the “rate lowering effect with ΔPLA2 mutant” value [3] of the same molecule?
A: not observed

Q: And the “rate lowering effect with Naja venom enzyme” value [4]?
A: not observed

Q: And the S ([5]; 8.5 μM PLA2)?
A: 3.5 cal/mole/deg

Q: What about the Hill coefficient ([5]; single hyperbola fit) of the same molecule?
A: 1

Q: And the Kd ([5]; KEB, 8.5 μM PLA2)?
A: 9 µM

Q: And the Kd [6]?
A: 6 µM

Q: And the Kd [7]?
A: 27 µM

Q: And the Kd [8]?
A: 150 µM

Q: What about the Kd [9] of the same molecule?
A: 210 µM

Q: What about the Kd [10] of the same molecule?
A: 18 µM

Q: What about the Kd [11] of the same molecule?
A: 50 µM

Q: What about the Kd [12] of the same molecule?
A: 4 µM

Q: What about the Kd [13] of the same molecule?
A: 3 µM

Q: What about the Kd [14] of the same molecule?
A: 15 µM

Q: And the Kd [15]?
A: 21 µM

Q: What about the Kd [16] of the same molecule?
A: 3 µM

Q: What about the Kd [17] of the same molecule?
A: 200 µM

Q: What about the Kd [18] of the same molecule?
A: 7 µM

Q: And the “efficacy to quench RET signal from TMA-DPH bound to PLA2” value [19]?
A: most effective
